Consider eight molecules from PubChem BioAssay (NCI).

Among the test systems are HOP-92 NSCLC; HT29 colon; MOLT-4 leukemia; NCI-H522 lung; OVCAR-5 ovarian; SF-268 CNS; SK-MEL-2 melanoma; SNB-75 CNS; SR leukemia; UACC-257 melanoma.
Holding throughout (test): growth of human tumour cells (NCI), 48 h

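Growth conditions: 96-well plates. Treatment: test compound, 48 hours, 5 concentrations. Analysis: linear interpolation between bracketing concentrations; unreached endpoints set to highest concentration. Here, GI50 denotes the concentration required for 50% inhibition of growth. At the TGI there is no net growth.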 A value given as a limit tells only on which side of the number the result lay.

Consider `O=C1OC(C(O)CO)C(=O)C1=O` (stereo not given), for which the GI50 is 2060 µM in the assay with HOP-92 NSCLC; 4240 µM in the assay with HT29 colon; 4120 µM with MOLT-4 leukemia; 1850 µM with NCI-H522 lung; 2050 µM in the assay on OVCAR-5 ovarian; 2720 µM in the assay on SF-268 CNS. Moreover, the GI50 in the assay on SK-MEL-2 melanoma is above 10000 µM; with SNB-75 CNS, 6160 µM; in the assay with SR leukemia, 3860 µM; in the assay with UACC-257 melanoma, above 10000 µM. In addition, the TGI was 4230 µM with HOP-92 NSCLC; above 10000 µM in the assay on HT29 colon; above 10000 µM in the assay with MOLT-4 leukemia; 3460 µM with NCI-H522 lung; 4330 µM in the assay on OVCAR-5 ovarian; 6600 µM in the assay on SF-268 CNS. For the same molecule, the TGI in the assay on SK-MEL-2 melanoma, in the assay with SNB-75 CNS, in the assay on SR leukemia and in the assay on UACC-257 melanoma was above 10000 µM each time.
`COc1ccc(Cn2cc3c(c2-c2ccccc2)CC(C)(C)c2cnoc2-3)cc1`: the GI50 in the assay on HOP-92 NSCLC was 1.96 µM; in the assay on HT29 colon, 0.95 µM; in the assay on MOLT-4 leukemia it was 2.82 µM; in the assay with NCI-H522 lung it was 0.314 µM; in the assay with OVCAR-5 ovarian, 4.39 µM; in the assay on SF-268 CNS it was 3.92 µM. Also, the GI50 in the assay on SK-MEL-2 melanoma was 2.9 µM; in the assay on SNB-75 CNS it was 1.63 µM; with SR leukemia, 0.483 µM; in the assay on UACC-257 melanoma it was 9.64 µM. Further, the TGI with HOP-92 NSCLC is 32.7 µM; in the assay with HT29 colon it was 7.53 µM; in the assay with MOLT-4 leukemia it was above 100 µM; in the assay on NCI-H522 lung, 1.9 µM; in the assay on OVCAR-5 ovarian, above 100 µM; in the assay with SF-268 CNS, above 100 µM. Further, the TGI in the assay on SK-MEL-2 melanoma is 53.6 µM; with SNB-75 CNS, 6.15 µM; with SR leukemia, above 100 µM; in the assay with UACC-257 melanoma, above 100 µM.
In the case of `C=C1C(=O)O[C@@H]2/C=C(\C)CC/C=C(/COC(C)=O)C[C@@H](OC(C)=O)[C@@H]12`, the TGI in the assay with HOP-92 NSCLC is 21.1 µM; in the assay on HT29 colon, above 40.9 µM; with MOLT-4 leukemia, 16.9 µM; in the assay with NCI-H522 lung, 3.2 µM; in the assay with OVCAR-5 ovarian, 34.6 µM; in the assay on SF-268 CNS it was 33.2 µM. For the same molecule, the TGI is 31.8 µM in the assay with SK-MEL-2 melanoma, above 100 µM with SNB-75 CNS, 7.39 µM with SR leukemia and 32.2 µM with UACC-257 melanoma.
For `N=C1C(c2nc3ccccc3s2)=C(O)CN1c1cc(C(F)(F)F)ccc1Cl`, the GI50 in the assay with HOP-92 NSCLC was 7.69 µM; with HT29 colon, 25.8 µM; with MOLT-4 leukemia it was 16.3 µM; in the assay with NCI-H522 lung, 9.49 µM; with OVCAR-5 ovarian, 70.2 µM; in the assay on SF-268 CNS, 28.8 µM. Further, the GI50 with SK-MEL-2 melanoma was 29.8 µM; in the assay on SNB-75 CNS, 24.1 µM; in the assay with SR leukemia, 1.81 µM; in the assay on UACC-257 melanoma it was 7.65 µM. Moreover, the TGI in the assay on HOP-92 NSCLC was 98.1 µM; with HT29 colon, above 100 µM; with MOLT-4 leukemia it was above 100 µM; with NCI-H522 lung, above 100 µM; in the assay with OVCAR-5 ovarian, above 100 µM; in the assay with SF-268 CNS, above 100 µM. Moreover, the TGI in the assay on SK-MEL-2 melanoma was above 100 µM; in the assay on SNB-75 CNS it was above 100 µM; in the assay on SR leukemia it was 4.91 µM; in the assay on UACC-257 melanoma, 46.1 µM.
Take `CCOC(=O)CC1(C(=O)OCC)c2[nH]c3ccccc3c2CCN1Cc1ccccc1` (stereo not given): the TGI in the assay on HOP-92 NSCLC was 32.2 µM; with HT29 colon, 29.8 µM; in the assay on MOLT-4 leukemia, 49.1 µM; with NCI-H522 lung, 28.1 µM; in the assay with OVCAR-5 ovarian it was 39.5 µM; in the assay with SF-268 CNS, 37.7 µM. Besides, the TGI in the assay with SK-MEL-2 melanoma worked out at 32.8 µM; in the assay with SNB-75 CNS, 45.8 µM; in the assay with SR leukemia, 52.6 µM; in the assay on UACC-257 melanoma it was 40.5 µM.
Regarding `O=C(N/N=C/c1ccc(Cl)cc1)c1ccc(C(F)(F)F)nc1Nc1cccc(C(F)(F)F)c1`, the GI50 was 0.347 µM in the assay with HOP-92 NSCLC; 1.44 µM in the assay on HT29 colon; 0.731 µM in the assay with MOLT-4 leukemia; 2.8 µM in the assay on NCI-H522 lung; 3.2 µM with OVCAR-5 ovarian; 1.14 µM in the assay with SF-268 CNS. In addition, the GI50 is 2.58 µM with SK-MEL-2 melanoma, 2.72 µM in the assay with SNB-75 CNS, 0.879 µM in the assay with SR leukemia and 2.43 µM in the assay on UACC-257 melanoma. In addition, the TGI in the assay with HOP-92 NSCLC stood at 2.71 µM; with HT29 colon, 11.7 µM; in the assay with MOLT-4 leukemia, 5.3 µM; with NCI-H522 lung, 10.7 µM; in the assay on OVCAR-5 ovarian, 13.7 µM; in the assay with SF-268 CNS, 8.29 µM. The TGI in the assay with SK-MEL-2 melanoma was 7.91 µM; with SNB-75 CNS it was 13.4 µM; in the assay with SR leukemia it was 5.71 µM; in the assay with UACC-257 melanoma, 8.99 µM.
As for `Cc1cn(C2CC(O)C(CO)O2)c(=O)n2nnnc12` (stereo not given), the TGI in the assay with HOP-92 NSCLC, in the assay with HT29 colon, in the assay with MOLT-4 leukemia, in the assay with NCI-H522 lung, with OVCAR-5 ovarian and in the assay on SF-268 CNS was above 100 µM each time. Moreover, the TGI with SK-MEL-2 melanoma, in the assay on SNB-75 CNS, in the assay on SR leukemia and in the assay on UACC-257 melanoma was above 100 µM each time.
For `CC(=O)CSCc1ccccn1`, the TGI in the assay on HOP-92 NSCLC was above 100 µM; in the assay on HT29 colon it was above 100 µM; with MOLT-4 leukemia it was 61.4 µM; in the assay on NCI-H522 lung, 45.3 µM; in the assay on OVCAR-5 ovarian, above 100 µM; with SF-268 CNS, above 100 µM. Also, the TGI with SK-MEL-2 melanoma is 71.4 µM; in the assay with SNB-75 CNS, 71.9 µM; with SR leukemia, 56.1 µM; in the assay with UACC-257 melanoma it was above 100 µM.
